Measured values taken from patent publication US10766869B2, “Triazoles for the treatment of demyelinating dieases” (Vertex Pharmaceuticals Incorporated, priority 2015, dated 2020).

System: primary rat mixed cortical cells
Test: In vitro myelination assay (MBP positive myelin strands, fold myelin pixels above background)
Format: cell-based
Conditions: Rattus norvegicus, relative to baseline of no added compound, read-out: Fold myelin pixels above background; for fold induction at 1 µM: 1.0 μM compound; for fold induction at 10 µM: 10.0 μM compound
How it was run: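 Fourteen-day treatment of primary P1 rat mixed cortical cultures, re-dosed at days 6 and 10, at 1.0 μM and 10.0 μM. MBP immunofluorescence was imaged at 10× and myelin strands quantified by software, normalised to untreated wells as fold above background.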

Compound | fold induction at 1 µM | fold induction at 10 µM
Cc1cc(Nc2ncn(-c3cc(F)cc(F)c3)n2)cc(N2CCN(C(=O)N3CCOCC3)CC2)c1 [Compound 582, [4-[3-[[1-(3,5-difluorophenyl)-1,2,4-triazol-3-yl]amino]-5-methyl-phenyl]piperazin-1-yl]-morpholino-methanone] | 1 to 10 | 10 to 100
Cc1cc(CN2CCN(C3COC3)CC2)cc(Nc2ncn(-c3cnccn3)n2)c1 [Compound 583, N-[3-methyl-5-[[4-(oxetan-3-yl)piperazin-1-yl]methyl]phenyl]-1-pyrazin-2-yl-1,2,4-triazol-3-amine] | 10 to 100 | 10 to 100
COC[C@H](C)NC(=O)C1CN(c2cc(C)cc(Nc3ncn(-c4cc(F)cc(F)c4)n3)c2)C1 [Compound 584, 1-[3-[[1-(3,5-difluorophenyl)-1,2,4-triazol-3-yl]amino]-5-methyl-phenyl]-N-[(1S)-2-methoxy-1-methyl-ethyl]azetidine-3-carboxamide] | 10 to 100 | 1 to 10
Cc1cc(Nc2ncn(-c3cccnc3)n2)cc(N2CCN(C3(C)COC3)CC2)c1 [Compound 585, N-[3-methyl-5-[4-(3-methyloxetan-3-yl)piperazin-1-yl]phenyl]-1-(3-pyridyl)-1,2,4-triazol-3-amine] | 10 to 100 | 1 to 10
Cc1cc(Nc2ncn(-c3cc(F)cc(F)c3)n2)cc(N2CC(N3CCOC4(CC4)C3)C2)c1 [Compound 586, 1-(3,5-difluorophenyl)-N-[3-methyl-5-[3-(4-oxa-7-azaspiro[2.5]octan-7-yl)azetidin-1-yl]phenyl]-1,2,4-triazol-3-amine] | 10 to 100 | 10 to 100
Cc1cc(N2CCN(C3COC3)CC2)cc(Nc2ncn(-c3cc(F)cc(F)c3)n2)c1F [Compound 587, 1-(3,5-difluorophenyl)-N-[2-fluoro-3-methyl-5-[4-(oxetan-3-yl)piperazin-1-yl]phenyl]-1,2,4-triazol-3-amine] | 1 to 10 | 10 to 100
Cc1cc(Nc2ncn(-c3ccccc3)n2)cc(Nc2ncc(C)s2)c1 [Compound 588, 5-methyl-N1-(5-methylthiazol-2-yl)-N3-(1-phenyl-1,2,4-triazol-3-yl)benzene-1,3-diamine] | 10 to 100 | ≤ 1
Cc1cc(Nc2ncn(-c3cc(F)cc(F)c3)n2)cc(N2CCC(C(=O)N3CCOCC3)CC2)c1 [Compound 589, [1-[3-[[1-(3,5-difluorophenyl)-1,2,4-triazol-3-yl]amino]-5-methyl-phenyl]-4-piperidyl]-morpholino-methanone] | 10 to 100 | ≤ 1
Cc1cc(Nc2ncn(-c3ccc(F)c(F)c3)n2)cc(OC2CCCN(C3COC3)C2)c1 (stereo not drawn) [Compound 590, 1-(3,4-difluorophenyl)-N-[3-methyl-5-[[1-(oxetan-3-yl)-3-piperidyl]oxy]phenyl]-1,2,4-triazol-3-amine] | 10 to 100 | 1 to 10
Cc1c(Nc2ncn(-c3cc(F)cc(F)c3)n2)cc(N2CCN(C3COC3)CC2)cc1OC(C)C [Compound 591, 1-(3,5-difluorophenyl)-N-[3-isopropoxy-2-methyl-5-[4-(oxetan-3-yl)piperazin-1-yl]phenyl]-1,2,4-triazol-3-amine] | 10 to 100 | 10 to 100
N#Cc1cc(Nc2ncn(-c3ccccc3)n2)cc(N2CCN(C3COC3)CC2)c1 [Compound 592, 3-[4-(oxetan-3-yl)piperazin-1-yl]-5-[(1-phenyl-1,2,4-triazol-3-yl)amino]benzonitrile] | 1 to 10 | ≤ 1
Cc1cc(Nc2ncn(-c3cc(F)cc(F)c3)n2)cc(N2CCN(CCN3CCOCC3)CC2)c1 [Compound 593, 1-(3,5-difluorophenyl)-N-[3-methyl-5-[4-(2-morpholinoethyl)piperazin-1-yl]phenyl]-1,2,4-triazol-3-amine] | 1 to 10 | ≤ 1
Fc1cc(Nc2ncn(-c3cccc(F)c3)n2)cc(N2CCN(C3COC3)CC2)c1 [Compound 594, N-[3-fluoro-5-[4-(oxetan-3-yl)piperazin-1-yl]phenyl]-1-(3-fluorophenyl)-1,2,4-triazol-3-amine] | 1 to 10 | 1 to 10
Cc1cc(Nc2ncn(-c3cccc(C(F)F)c3)n2)cc(N2CC(N3CCOCC3)C2)c1 [Compound 595, 1-[3-(difluoromethyl)phenyl]-N-[3-methyl-5-(3-morpholinoazetidin-1-yl)phenyl]-1,2,4-triazol-3-amine] | 1 to 10 | ≤ 1
Cc1cc(CN2CCN(C3COC3)CC2)cc(Nc2ncn(-c3cc(F)cc(F)c3)n2)c1 [Compound 596, 1-(3,5-difluorophenyl)-N-[3-methyl-5-[[4-(oxetan-3-yl)piperazin-1-yl]methyl]phenyl]-1,2,4-triazol-3-amine] | 10 to 100 | 10 to 100
Cc1cc(Nc2ncn(-c3ccc(F)c(Cl)c3)n2)cc(N2CCN(C3COC3)CC2)c1 [Compound 597, 1-(3-chloro-4-fluoro-phenyl)-N-[3-methyl-5-[4-(oxetan-3-yl)piperazin-1-yl]phenyl]-1,2,4-triazol-3-amine] | 1 to 10 | ≤ 1
Fc1cc(Nc2ncn(-c3cnccn3)n2)cc(N2CCN(C3COC3)CC2)c1 [Compound 598, N-[3-fluoro-5-[4-(oxetan-3-yl)piperazin-1-yl]phenyl]-1-pyrazin-2-yl-1,2,4-triazol-3-amine] | 1 to 10 | 1 to 10
COc1cc(Nc2ncn(-c3cc(F)cc(F)c3)n2)nc(N2CCN(C3COC3)CC2)c1 [Compound 599, N-[1-(3,5-difluorophenyl)-1,2,4-triazol-3-yl]-4-methoxy-6-[4-(oxetan-3-yl)piperazin-1-yl]pyridin-2-amine] | 10 to 100 | 10 to 100
Cc1cc(Nc2ncn(-c3cccc(C(F)(F)F)c3)n2)nc(NC2CCOC2)c1 (stereo not drawn) [Compound 600, 4-methyl-N2-tetrahydrofuran-3-yl-N6-[1-[3-(trifluoromethyl)phenyl]-1,2,4-triazol-3-yl]pyridine-2,6-diamine] | 1 to 10 | 10 to 100
Fc1cc(F)cc(-n2cnc(Nc3cc(C(F)(F)F)cc(N4CC(N5CCOCC5)C4)n3)n2)c1 [Compound 601, N-[1-(3,5-difluorophenyl)-1,2,4-triazol-3-yl]-6-(3-morpholinoazetidin-1-yl)-4-(trifluoromethyl)pyridin-2-amine] | 1 to 10 | ≤ 1
Cc1cc(Nc2ncn(-c3cc(F)cc(F)c3)n2)cc(N2CC(N3CCOC(C)(C)C3)C2)c1 [Compound 602, 1-(3,5-difluorophenyl)-N-[3-[3-(2,2-dimethylmorpholin-4-yl)azetidin-1-yl]-5-methyl-phenyl]-1,2,4-triazol-3-amine] | 1 to 10 | 1 to 10
CCn1cnc(Nc2cc(C)cc(Nc3ncn(-c4ccccc4)n3)c2)n1 [Compound 604, N1-(1-ethyl-1,2,4-triazol-3-yl)-5-methyl-N3-(1-phenyl-1,2,4-triazol-3-yl)benzene-1,3-diamine] | 10 to 100 | ≤ 1
Cc1cc(Nc2ncn(-c3cc(F)cc(F)c3)n2)cc(OCc2ccn(C)n2)c1 [Compound 605, 1-(3,5-difluorophenyl)-N-[3-methyl-5-[(1-methylpyrazol-3-yl)methoxy]phenyl]-1,2,4-triazol-3-amine] | 10 to 100 | 10 to 100
Cc1cc(Nc2ncn(-c3ccc(F)cc3)n2)cc(N2CC(N3CCOCC3)C2)c1 [Compound 606, 1-(4-fluorophenyl)-N-[3-methyl-5-(3-morpholinoazetidin-1-yl)phenyl]-1,2,4-triazol-3-amine] | 1 to 10 | 1 to 10
N#Cc1cc(Nc2ncn(-c3ccc(F)c(F)c3)n2)nc(N2CCN(C3COC3)CC2)c1 [Compound 607, 2-[[1-(3,4-difluorophenyl)-1,2,4-triazol-3-yl]amino]-6-[4-(oxetan-3-yl)piperazin-1-yl]pyridine-4-carbonitrile] | 10 to 100 | 10 to 100
N#Cc1cc(Nc2ncn(-c3ccccc3)n2)cc(N2CCOCC2)c1 [Compound 608, 3-morpholino-5-[(1-phenyl-1,2,4-triazol-3-yl)amino]benzonitrile] | 10 to 100 | 1 to 10
Cc1cc(Nc2ncn(-c3ccccn3)n2)cc(N2CCCN(C3COC3)CC2)c1 [Compound 609, N-[3-methyl-5-[4-(oxetan-3-yl)-1,4-diazepan-1-yl]phenyl]-1-(2-pyridyl)-1,2,4-triazol-3-amine] | 100 to 1000 | 100 to 1000
COc1cc(Nc2ncn(-c3cccc(C(F)(F)F)c3)n2)nc(N2CCN(C3COC3)CC2)c1 [Compound 610, 4-methoxy-6-[4-(oxetan-3-yl)piperazin-1-yl]-N-[1-[3-(trifluoromethyl)phenyl]-1,2,4-triazol-3-yl]pyridin-2-amine] | 1 to 10 | 1 to 10
Fc1cc(F)cc(-n2cnc(Nc3cc(N4CC(N5CCOCC5)C4)cc(F)n3)n2)c1 [Compound 612, N-[1-(3,5-difluorophenyl)-1,2,4-triazol-3-yl]-6-fluoro-4-(3-morpholinoazetidin-1-yl)pyridin-2-amine] | ≤ 1 | 10 to 100
Cc1cc(Nc2ncn(-c3cc(F)cc(F)c3)n2)cc(C2(C)CN(C)C(=O)O2)c1 (stereo not drawn) [Compound 613, 5-[3-[[1-(3,5-difluorophenyl)-1,2,4-triazol-3-yl]amino]-5-methyl-phenyl]-3,5-dimethyl-oxazolidin-2-one] | 10 to 100 | 1 to 10
